Measurements as given in PMC11351550, “Synthesis, Cytotoxicity and Antioxidant Activity Evaluation of Some Thiazolyl–Catechol Compounds” (Antioxidants, 2024).
Counter-ions that a name gives are not always drawn.

Experiments:
[1] = system: normal human foreskin fibroblasts (BJ); experiment: Alamar Blue cytotoxicity assay, BJ cells; format: cell-based; details: for IC50: Homo sapiens, Fibroblast, 48 h exposure, Alamar Blue
Method: (§1) BJ cells were maintained in Dulbecco’s modified Eagle’s medium (DMEM) with low glucose (1 g/L), while the A549 cells were seeded in DMEM with high glucose (5 g/L). All media were supplemented with 10% fetal bovine serum (FBS) and 1% Penicillin/Streptomycin. […] Cellular media were refreshed every other day. Cells were either subcultured or used in experiments once they reached a confluency of 80–90%.
(§2) The cytotoxicity of the synthesized compounds was evaluated by Alamar Blue (AB) assays performed on both cell lines, A549 and BJ, after a 48 h exposure, as previously reported.
(§3) Briefly, approximately 7000 A549 cells and 4000 normal BJ cells were seeded in 100 µL cellular media in 96-well plates to achieve a confluency of 70–80% at the end of the experiment and left to attach overnight before exposure. […] Post-exposure, the media were removed, and the AB assay was performed, with cells being incubated with a 200 µM solution of resazurin for 4 h. The obtained fluorescence was measured at λexcitation = 530/25; λemission = 590/35.
(§4) The experiments included three biological replicates, each one including three technical replicates. The negative control (NC) consisted of cells exposed to a cell culture medium containing 0.2% DMSO and was used for data normalization (100%).

[2] = Ferrous ion chelation assay (ferrozine); format: biochemical; parameters: key: - represents negligible activity
Method: (§5) The stock solutions of the reference antioxidants (ascorbic acid, Trolox, EDTA-Na2) and compounds 3a–j were prepared by dissolving the solid powders in DMSO, obtaining 2 mM stock solutions. Following this, an additional set of solutions (0.2 mM) for each compound was obtained by dilution with DMSO. Absorption spectra of the tested compounds covering the range from 400 nm to 800 nm were recorded, indicating no absorption peaks near the wavelengths employed in the experiments. All measurements in the presented assays were made against blank samples. To quantify the activity of the compounds 3a–j, for the antiradical assays (DPPH and ABTS) and ferrous ion chelation, IC50 was calculated using Equation (1), while for the electron transfer assays (TAC, RP, FRAP and CUPRAC), the reference number of mole equivalent activity for each compound was calculated using Equation (2). (1) radical scavenging (%)=control absorbance−sample absorbance/control absorbance×100 (2) equivalents of control=sample absorbance/control absorbance
To evaluate the ability of compounds to chelate ferrous ions, an assay was performed using an adaptation of Dinis et al.’s initial report. The solutions of the tested compounds (2 mM) were mixed well with 500 µL of FeSO4 (0.125 mM), and 500 µL of ferrozine 0.315 mM. After 10 min, the absorbance of the samples was determined spectrophotometrically at λ = 562 nm. EDTA-Na2 was used as a positive control, due to its exceptional ion chelation properties.

[3] = Ferric-Reducing Antioxidant Potential (FRAP) assay; format: biochemical; details: pH 3.6, 593 nm
Method: as §5
The Ferric-Reducing Antioxidant Potential (FRAP) assay relies on the transfer of an electron from the antioxidant being assessed to Fe^3+, resulting in its conversion to Fe^2+. The resulting Fe^2+ ions are then chelated by 2,4,6-tripyridyl-s-triazine, giving a blue-colored complex, with an absorption maximum at λ = 593 nm. A 500 µL amount of the solutions (0.2 mM) of compounds and reference compounds was mixed with 600 µL FRAP reagent and 1200 µL acetate buffer (0.3 M, pH = 3.6), according to previous reports. The resulting solutions were mixed well in the dark, and their absorbance was measured spectrophotometrically.

[4] = ABTS radical cation decolorization assay; format: biochemical; details: 10 min, pH 7.4, 734 nm; read-out: IC50 against ABTS•+
Method: as §5
The decolorization assay of the green ABTS^•+ (2,2′-azinobis-(3-ethylbenzothiazoline-6-sulfonic acid) to ABTS, based on the report of Re et al., was conducted following our group’s published report. The chemical stability of the ABTS^•+ reagent prior to use was checked at λ = 734 nm over one hour, ensuring a consistent absorption (approximately equal to 0.7). The reagent was prepared in potassium phosphate buffer (0.1 M, pH = 7.4) and activated overnight using MnO2 [17]. In all cuvettes, we added 100 μL of the tested compound solutions (0.2 mM) in increasing concentrations up to 200 µL and 2000 µL of the ABTS^•+ reagent. The resulting mixtures were thoroughly shaken for 10 min at room temperature, in the absence of light. The optical absorbance of the resulting mixtures was then measured by spectrophotometry at λ = 734 nm.

[5] = DPPH radical-scavenging assay; format: biochemical; details: 30 min in the dark, 517 nm; read-out: IC50 against DPPH•
Method: as §5
The DPPH˙ (2,2-diphenyl-1-picrylhydrazyl) radical-scavenging assay, initially reported by Brand-Williams et al., relies on transferring a hydrogen atom from the antioxidant substrate being analyzed to the stable violet radical of DPPH˙. This action converts DPPH˙ into a nonradical stable yellow compound. The reduction in absorbance of the DPPH˙ at λ = 517 nm corresponds to the quantity of neutralized reagent. To perform the DPPH assay, we took 50, 75, 100, 125, and 150 µL of each sample from their 0.2 mM stock solutions, then we adjusted the volumes with DMSO to ensure all samples reached a uniform final volume. These solutions were mixed with 1 mL of DPPH reagent and incubated in the dark for 30 min, as presented in literature reports.

[6] = Reducing power (RP) assay; format: biochemical; details: 50 °C, 20 min, pH 6.6
Method: as §5
In the reducing power (RP) assay, the tested compounds performed the reduction of ferric ions from potassium ferricyanide, forming ferrocyanide, which gives a blue complex. The protocol followed is an adaptation of previously reported methodologies. In glass test tubes, 1000 µL of solutions containing compounds and standards measured from the 0.2 mM stock solutions were mixed with 400 µL of phosphate buffer (0.2 M, pH = 6.6) and 400 µL of K3[Fe(CN)6] solution (1% w/v). The tubes were sealed and incubated for 20 min in a water bath at 50 °C. After cooling to room temperature, 500 µL of trichloroacetic acid (10% w/w) was added to all test tubes The resulting mixtures were left for 0.5 h at room temperature. Subsequently, 250 µL of the resulting solutions were mixed with 140 µL of FeCl3 solution (0.1% w/v) and 1000 µL of distilled water, and the absorbance of the resulting solutions was determined at λ = 695 nm.

[7] = CUPRAC (CUPric-Reducing Antioxidant Capacity) assay; format: biochemical; details: 30 min, 450 nm
Method: as §5
The electron-donating capacity of compounds was assessed using the CUPRAC (CUPric-Reducing Antioxidant Capacity) method. The protocol for this assay is a modification of the reports of Alam et al., Özyürek et al., and Apak et al.. Volumes of 250 µL of CuCl2 10 mM, 1 mL of ammonium acetate buffer 1 M, and 250 µL of 7.5 mM neocuproine in ethanol were mixed with 125 µL of samples and reference compound solutions (0.2 mM). The mixtures were shaken for 30 min in the dark; after that, their absorbance was determined spectrophotometrically at λ = 450 nm.

[8] = Total Antioxidant Capacity (TAC) assay; format: biochemical; details: 95 °C, 1.5 h, 695 nm
Method: as §5
The Total Antioxidant Capacity (TAC) assay was conducted following the methodology outlined in our previous publication, which was based on initial reports from the literature. A volume of 10 mL of the reagent (0.6 M H2SO4, 28 mM Na3PO4 and 4 mM (NH4)6Mo7O24) and 1000 µL of the compound and standard solutions dispensed from the 2 mM stock solutions were mixed in sealed glass test tubes and incubated in a water bath at 95 °C for 1.5 h. After cooling the test tubes to room temperature, 1000 µL of each solution was diluted with 1000 µL of water. The absorbance of the solutions was then measured at λ = 695 nm.

[9] = system: human pulmonary malignant cells (A549); experiment: Alamar Blue cytotoxicity assay, A549 cells; format: cell-based; details: for IC50: Homo sapiens, A549, 48 h exposure, Alamar Blue, read-out: IC50 (±SD) A549; for Selectivity Index: ratio between the calculated IC50 on BJ and A549 cells, 48 h
Method: as §1, §2, §3, §4

melting point [°C] | IC50 [4] [µM] | IC50 [5] [µM] | Compound | IC50 [1] [µM] | decrease of viability of BJ cells ([1]; highest tested dose, 48 h) | ferrous ion chelation percent ([2]; 0.25 µM) | ferrous ion chelation percent ([2]; 0.5 µM) | ferrous ion chelation percent ([2]; 1 µM) | ferrous ion chelation percent ([2]; 1.5 µM) | ferrous ion chelation percent ([2]; 2 µM) | FRAP Eq Trolox [3] [Eq Trolox] | RP Eq Ascorbic Acid [6] [Eq Ascorbic Acid] | RP Eq Trolox [6] [Eq Trolox] | CUPRAC Eq Trolox [7] [Eq Trolox] | TAC Eq Ascorbic Acid [8] [Eq Ascorbic Acid] | IC50 [9] [µM] | Selectivity Index [9]
196 |  |  | Cc1cccc(-c2nc(-c3ccc(O)c(O)c3)cs2)c1 (as salt: hydrochloride) [Compound 3e, 4-(2-(m-tolyl)thiazol-4-yl)benzene-1,2-diol] |  |  |  |  |  |  |  |  |  |  |  |  |  | 
219 |  |  | COc1cc(-c2nc(-c3ccc(O)c(O)c3)cs2)cc(OC)c1OC (as salt: hydrochloride) [Compound 3f, 4-(2-(3,4,5-trimethoxyphenyl)thiazol-4-yl)benzene-1,2-diol] |  |  |  |  |  |  |  |  |  |  |  |  |  | 
240 |  |  | Oc1ccc(-c2csc(-c3ccncc3)n2)cc1O (as salt: hydrochloride) [Compound 3g, 4-(2-(pyridin-4-yl)thiazol-4-yl)benzene-1,2-diol] |  |  |  |  |  |  |  |  |  |  |  |  |  | 
230 |  |  | Oc1ccc(-c2csc(-c3ccccn3)n2)cc1O (as salt: hydrochloride) [Compound 3h, 4-(2-(pyridin-2-yl)thiazol-4-yl)benzene-1,2-diol] |  |  |  |  |  |  |  |  |  |  |  |  |  | 
258 |  |  | Oc1ccc(-c2csc(-c3csc(-c4ccccc4)n3)n2)cc1O (as salt: hydrochloride) [Compound 3i, 4-(2′-phenyl-[2,4′-bithiazol]-4-yl)benzene-1,2-diol] |  |  |  |  |  |  |  |  |  |  |  |  |  | 
265 |  |  | Cc1ccc(-c2nc(-c3nc(-c4ccc(O)c(O)c4)cs3)cs2)cc1 (as salt: hydrochloride) [Compound 3j, 4-(2′-(p-tolyl)-[2,4′-bithiazol]-4-yl)benzene-1,2-diol] |  |  |  |  |  |  |  |  |  |  |  |  |  | 
 | 7.59 | 36.7 | Oc1ccc(-c2csc(-c3ccncc3)n2)cc1O [Compound 3g, 4-(2-(pyridin-4-yl)thiazol-4-yl)benzene-1,2-diol] | > 100 | approximately 20% | - | - | - | - | - | 1.63 | 2.04 | 1.69 | 3.60 | 0.64 | 7.34 | >13.62
 | 13.5 | 40.3 | Oc1ccc(-c2csc(-c3ccccn3)n2)cc1O [Compound 3h, 4-(2-(pyridin-2-yl)thiazol-4-yl)benzene-1,2-diol] | 76.7 |  | - | - | - | - | - | 1.03 | 2.06 | 1.71 | 2.13 | 1.34 | 13.1 | 5.84
 | 14.1 | 45.9 | Oc1ccc(-c2csc(-c3csc(-c4ccccc4)n3)n2)cc1O [Compound 3i, 4-(2′-phenyl-[2,4′-bithiazol]-4-yl)benzene-1,2-diol] | 29.4 |  | - | - | - | - | - | 1.14 | 1.63 | 1.35 | 1.84 | 0.51 | 5.18 | 5.67
 | 17.7 | 49.6 | Cc1ccc(-c2nc(-c3nc(-c4ccc(O)c(O)c4)cs3)cs2)cc1 [Compound 3j, 4-(2′-(p-tolyl)-[2,4′-bithiazol]-4-yl)benzene-1,2-diol] | 24.2 |  | - | - | - | - | - | 1.06 | 1.81 | 1.50 | 1.61 | 0.36 | 4.28 | 5.67
